Reference: US9034909B2, “Use of organic compound for the treatment of Noonan Syndrome” (Novartis AG, priority 2011, dated 2015)

Biological target: MEK1 (Homo sapiens, UniProt Q02750)
Experiment: isolated enzyme assay, MEK1 inhibition
Type: biochemical
Conditions: read-out: 50% inhibition (IC50) value
Source text: The compound of Formula (I) is 6-(4-bromo-2-fluorophenylamino)-7-fluoro-3-methyl-3H-benzoimidazole-5-carboxylic acid (2-hydroxyethoxy)-amide (COMPOUND A). The compound of Formula (I) is described in PCT Application No. WO 03/077914, which is hereby incorporated by reference in its entirety hereto, and methods for its preparation have been described, for example, in Example 18 therein.

Chain of MEK1 (Q02750 whole entry, species assumed): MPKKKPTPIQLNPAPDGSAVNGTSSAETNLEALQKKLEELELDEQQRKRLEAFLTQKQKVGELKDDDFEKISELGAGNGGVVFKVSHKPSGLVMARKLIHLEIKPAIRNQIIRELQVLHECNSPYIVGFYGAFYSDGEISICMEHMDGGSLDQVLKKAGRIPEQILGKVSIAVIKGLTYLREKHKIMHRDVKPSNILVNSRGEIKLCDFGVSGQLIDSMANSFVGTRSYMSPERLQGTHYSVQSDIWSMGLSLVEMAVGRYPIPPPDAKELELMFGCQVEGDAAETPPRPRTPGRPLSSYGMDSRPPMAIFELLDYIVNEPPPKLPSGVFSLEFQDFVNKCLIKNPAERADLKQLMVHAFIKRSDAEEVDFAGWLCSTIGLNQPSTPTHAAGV

Cn1cnc2c(F)c(Nc3ccc(Br)cc3F)c(C(=O)NOCCO)cc21 [COMPOUND A, 6-(4-bromo-2-fluorophenylamino)-7-fluoro-3-methyl-3H-benzoimidazole-5-carboxylic acid (2-hydroxyethoxy)-amide]
IC50: 0.012 µM
